{"source": "ChEMBL document CHEMBL1141514", "about": "“QSAR studies on CCR2 antagonists with chiral sensitive hologram descriptors” (Bioorg Med Chem Lett, 2008)", "data": [{"molecular_target": "C-C chemokine receptor type 2 (Homo sapiens, UniProt P41597)", "sequence (P41597 whole entry)": "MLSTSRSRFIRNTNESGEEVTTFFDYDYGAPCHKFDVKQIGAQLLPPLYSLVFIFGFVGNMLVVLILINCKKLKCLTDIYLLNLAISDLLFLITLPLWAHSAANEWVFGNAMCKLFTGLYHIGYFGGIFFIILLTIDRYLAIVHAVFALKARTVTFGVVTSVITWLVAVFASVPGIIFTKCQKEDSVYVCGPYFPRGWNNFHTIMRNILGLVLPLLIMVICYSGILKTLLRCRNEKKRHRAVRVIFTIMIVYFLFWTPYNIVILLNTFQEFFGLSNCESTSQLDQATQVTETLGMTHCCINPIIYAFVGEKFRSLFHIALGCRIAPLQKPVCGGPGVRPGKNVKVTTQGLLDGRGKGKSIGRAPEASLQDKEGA", "assay": "(§1) Antagonist activity at human CCR2b receptor", "format": "functional", "conditions": "read-out: IC50", "units": {"IC50": "nM"}, "values": [{"smiles": "CSC[C@]1(C(=O)NCc2cc(F)cc(C(F)(F)F)c2)CC[C@@H](N2CC[C@]3(C=Cc4ccccc43)[C@@H](C)C2)C1", "IC50": 3.5}, {"smiles": "CC(CCN1CCC2(C=Cc3ccccc32)CC1)C(=O)NCc1cc(C(F)(F)F)cc(C(F)(F)F)c1", "note": "(configuration not stated)", "IC50": 231}, {"smiles": "CC(C)[C@]1(C(=O)NCc2cc(C(F)(F)F)cc(C(F)(F)F)c2)CC[C@@H](N2CC[C@]3(C=Cc4ccccc43)[C@@H](C)C2)C1", "IC50": 7.6}, {"smiles": "CCC[C@]1(C(=O)NCc2cc(C(F)(F)F)cc(C(F)(F)F)c2)CC[C@@H](N2CC[C@]3(C=Cc4ccccc43)[C@@H](C)C2)C1", "IC50": 16}, {"smiles": "C[C@H]1CN([C@@H]2CC[C@@](C(=O)NCc3cc(F)cc(C(F)(F)F)c3)(C3CC3)C2)CC[C@]12C=Cc1ccccc12", "IC50": 1.9}, {"smiles": "C=CCC(CCN1CCC(c2ccccc2)CC1)C(=O)NCc1cc(C(F)(F)F)cc(C(F)(F)F)c1", "note": "(configuration not stated)", "IC50": 642}, {"smiles": "C[C@H]1CN(CCC(C(=O)NCc2cc(C(F)(F)F)cc(C(F)(F)F)c2)C2CC2)CC[C@@]12C=Cc1ccccc12", "note": "(some centres not stated)", "IC50": 14}, {"smiles": "CC(C)C[C@]1(C(=O)NCc2cc(C(F)(F)F)cc(C(F)(F)F)c2)CC[C@@H](N2CC[C@]3(C=Cc4ccccc43)[C@@H](C)C2)C1", "IC50": 8}, {"smiles": "O=C(NCc1cc(C(F)(F)F)cc(C(F)(F)F)c1)C(CCN1CCC(c2ccc(F)cc2)CC1)C1CC1", "note": "(configuration not stated)", "IC50": 280}, {"smiles": "C=CCC(CCN1CCC2(C=Cc3ccccc32)CC1)C(=O)NCc1cc(C(F)(F)F)cc(C(F)(F)F)c1", "note": "(configuration not stated)", "IC50": 193}, {"smiles": "C[C@H]1CN([C@@H]2CC[C@](C)(C(=O)NCc3cc(F)cc(C(F)(F)F)c3)C2)CC[C@]12C=Cc1ccccc12", "IC50": 4}, {"smiles": "C[C@H]1CN([C@@H]2CC[C@H](C(=O)NCc3cc(C(F)(F)F)cc(C(F)(F)F)c3)C2)CC[C@]12C=Cc1ccccc12", "IC50": 20}, {"smiles": "CC(C)[C@]1(C(=O)NCc2cc(F)cc(C(F)(F)F)c2)CC[C@@H](N2CC[C@]3(C=Cc4ccccc43)[C@@H](C)C2)C1", "IC50": 3.1}, {"smiles": "C[C@H]1CN([C@@H]2CC[C@](C)(C(=O)NCc3cc(C(F)(F)F)cc(C(F)(F)F)c3)C2)CC[C@]12C=Cc1ccccc12", "IC50": 9}, {"smiles": "C[C@H]1CN(CCC(CC2CC2)C(=O)NCc2cc(C(F)(F)F)cc(C(F)(F)F)c2)CC[C@@]12C=Cc1ccccc12", "note": "(some centres not stated)", "IC50": 25}, {"smiles": "CCCC(CCN1CCC(c2ccccc2)CC1)C(=O)NCc1cc(C(F)(F)F)cc(C(F)(F)F)c1", "note": "(configuration not stated)", "IC50": 126}, {"smiles": "C[C@H]1CN(CCC(C(=O)NCc2cc(C(F)(F)F)cc(C(F)(F)F)c2)C2CCC2)CC[C@@]12C=Cc1ccccc12", "note": "(some centres not stated)", "IC50": 28}, {"smiles": "Nc1nc([C@@H](CCN2CCC(c3ccccc3)CC2)C(=O)NCc2cc(C(F)(F)F)cc(C(F)(F)F)c2)cs1", "IC50": 229}, {"smiles": "C[C@H]1CN([C@@H]2CC[C@](CC3CCC3)(C(=O)NCc3cc(C(F)(F)F)cc(C(F)(F)F)c3)C2)CC[C@]12C=Cc1ccccc12", "IC50": 19}, {"smiles": "CC(C)C(CCN1CCC2(C=Cc3ccccc32)CC1)C(=O)NCc1cc(C(F)(F)F)cc(C(F)(F)F)c1", "note": "(configuration not stated)", "IC50": 204}, {"smiles": "CC(C)C[C@]1(C(=O)NCc2cc(F)cc(C(F)(F)F)c2)CC[C@@H](N2CC[C@]3(C=Cc4ccccc43)[C@@H](C)C2)C1", "IC50": 3.9}, {"smiles": "O=C(NCc1cc(C(F)(F)F)cc(C(F)(F)F)c1)C(CCN1CCC2(C=Cc3ccccc32)CC1)C1CC1", "note": "(configuration not stated)", "IC50": 98}, {"smiles": "CS[C@]1(C(=O)NCc2cc(F)cc(C(F)(F)F)c2)CC[C@@H](N2CC[C@]3(C=Cc4ccccc43)[C@@H](C)C2)C1", "IC50": 67}, {"smiles": "CSC[C@]1(C(=O)NCc2cc(C(F)(F)F)cc(C(F)(F)F)c2)CC[C@@H](N2CC[C@]3(C=Cc4ccccc43)[C@@H](C)C2)C1", "IC50": 13}, {"smiles": "O=C(NCc1cc(C(F)(F)F)cc(C(F)(F)F)c1)C(CCN1CCC(c2ccccc2)CC1)C1CC1", "note": "(configuration not stated)", "IC50": 285}, {"smiles": "CS[C@]1(C(=O)NCc2cc(C(F)(F)F)cc(C(F)(F)F)c2)CC[C@@H](N2CC[C@]3(C=Cc4ccccc43)[C@@H](C)C2)C1", "IC50": 28}]}, {"molecular_target": "C-C chemokine receptor type 2 (Homo sapiens, UniProt P41597)", "assay": "as §1", "format": "functional", "conditions": "read-out: Log IC50 (converted)", "units": {"IC50": "nM"}, "values": [{"smiles": "O=C(NCc1cc(C(F)(F)F)cc(C(F)(F)F)c1)[C@@H](NCCN1CCC(c2ccccc2)CC1)c1ccccc1", "IC50": 832}]}]}
